Source: PMC10766536 (The Journal of Antibiotics, 2023)
pIC50: −log10 of the molar value.

Legend:
[1] = test system: Salmonella typhimurium ATCC 14028; assay: S. typhimurium broth killing (growth inhibition) assay; settings: Salmonella typhimurium ATCC 14028, TSB, 24 h
Source text: To test the potency of rifamycin analogs of the disclosure in vitro, a broth growth inhibition assay was developed.

[2] = mouse, s9
[3] = target: CYP 1A2 (Homo sapiens, UniProt P05177); settings: read-out: CYP inhibition IC50; CYP 1A2, substrate Phenacetin; ND = Not Detected
[4] = Toxicokinetics in 2-week IV rat toxicity study; format: in vivo
Protocol: A subset from each dose group was maintained for 14 days after the last dose to evaluate delayed toxicity and/or recovery. All animals were observed twice daily for mortality and signs of pain or distress. Detailed clinical observations, body weight measurements and food consumption were conducted weekly; post dose observations (30 min post dose) were conducted daily or as required. Clinical pathology evaluations (hematology, coagulation parameters, and serum chemistry) were performed using samples collected on the day of scheduled sacrifice (main and recovery). At the end of the 14-day dosing period, and at the end of the 14-day recovery period, necropsies were performed on all animals, selected organs were weighed, and tissues were examined macroscopically and microscopically. Toxicokinetic parameters were evaluated on Day 1 and 14.

[5] = test system: CYP 2B6
[6] = test system: S. aureus MRSA strain N315; assay: S. aureus IV advanced disseminated infection mouse model, kidney burden; format: in vivo, Balb/c mice
Protocol: (§1) S. aureus MSRA strain NRS384 or N315 (BEI Resources), where indicated, was grown overnight in TSB and sub-cultured to mid-logarithmic phase. […] From 1 to 3 days post-infection, indicated mice were injected subcutaneously with 110 mg/kg vancomycin twice daily where indicated. […] Mice were monitored for weight loss and body conditioning score throughout the infection. At 4 days post-infection, mice were euthanized, and the S. aureus kidney burden was quantified by tissue homogenization followed by enumeration of cfu through serial dilution in PBS and plating onto TSA plates. Data points represent the kidney burden from individual mice tested. Statistical analysis was conducted with GraphPad Prism 9, Version 9.4.1.

[7] = test system: S. aureus MRSA strain NRS384; assay: as above; format: in vivo, Balb/c mice; settings: 0.01–0.25 mg/kg sc single dose in combination with vancomycin, NRS384
Protocol: as §1

Chain of CYP 1A2 (P05177 whole entry): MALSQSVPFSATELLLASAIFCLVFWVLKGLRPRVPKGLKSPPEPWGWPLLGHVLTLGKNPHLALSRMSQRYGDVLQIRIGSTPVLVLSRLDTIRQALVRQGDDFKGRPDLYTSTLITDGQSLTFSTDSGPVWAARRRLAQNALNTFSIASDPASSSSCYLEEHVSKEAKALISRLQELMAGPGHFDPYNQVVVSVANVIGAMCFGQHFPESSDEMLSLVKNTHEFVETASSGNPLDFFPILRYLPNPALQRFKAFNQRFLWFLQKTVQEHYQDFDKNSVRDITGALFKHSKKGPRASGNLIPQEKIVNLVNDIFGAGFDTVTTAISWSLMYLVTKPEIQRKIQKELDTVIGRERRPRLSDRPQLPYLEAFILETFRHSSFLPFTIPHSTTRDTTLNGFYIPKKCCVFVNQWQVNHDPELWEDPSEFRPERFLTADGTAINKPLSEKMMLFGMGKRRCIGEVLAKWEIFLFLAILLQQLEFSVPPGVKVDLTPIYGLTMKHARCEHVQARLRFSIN

COC1C=COC2(C)Oc3c(C)c(O)c4c(=O)c(c5oc6cc(OCCN(C)C)ccc6nc-5c4c3C2=O)NC(=O)C(C)=CC=CC(C)C(O)C(C)C(O)C(C)C(OC(C)=O)C1C (centres unmarked) [Compound 4]
Broth MIC [1]: 4 µM | T1/2 [2]: >2 h | pIC50 [3]: 4.96 | accumulation following 14 daily doses ([4]; rat IV QD): No apparent accumulation | sex difference in exposure ([4]; rat IV QD 1 mg/kg/day, males vs females): No sex difference | dose proportionality of Cmax and AUCtau ([4]; rat IV QD 0.1-10 mg/kg/day): approximately dose-proportional | AUC or Cmax when coadministered with vancomycin ([4]; rat IV, 1 + 110 mg/kg/day, compound 5: except Day 1, slightly greater Cmax and AUC): not impacted | Fold Induction (Enzyme Activity) [5]: 0.0131 | bacterial load (kidney) ([6]; 0.01 mg/kg in combination with vancomycin): below the limit of detection | S. aureus kidney burden ([6]; 0.01–0.75 mg/kg in combination with vancomycin): to or near the limit of detection | S. aureus kidney burden [7]: further reduced kidney burden
